pIC50: −log10 of the molar value.

In this assay the target is T1, Deoxyuridine 5'-triphosphate nucleotidohydrolase, mitochondrial (Homo sapiens, UniProt P33316).
T1 sequence (P33316 whole entry): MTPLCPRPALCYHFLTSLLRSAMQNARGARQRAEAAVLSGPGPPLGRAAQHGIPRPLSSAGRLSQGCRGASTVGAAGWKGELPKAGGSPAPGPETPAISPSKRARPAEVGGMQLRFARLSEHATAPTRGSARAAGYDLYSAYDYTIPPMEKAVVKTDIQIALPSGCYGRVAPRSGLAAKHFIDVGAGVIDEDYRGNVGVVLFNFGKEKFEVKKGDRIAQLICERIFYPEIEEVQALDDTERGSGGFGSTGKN
Nature of the assay: Inhibition Assay: The inhibitory activity of the compound against human dUTPase was determined by measuring the production of [5-3H]deoxyuridine monophosphate from [5-3H]deoxyuridine triphosphate.

As for `C[C@@H](NS(=O)(=O)CCCOCn1ccc(=O)[nH]c1=O)c1cccc(OCCF)c1`, the pIC50 is 6.39.

The term pIC50 denotes the negative decadic logarithm of the IC50, by convention in mol/L. Read a low pIC50 as a large IC50.

Source of the values: ChEMBL document CHEMBL3638618, “Uracil compound or salt thereof having human deoxyuridine triphosphatase inhibitory activity” (2013).
